Experimental data taken from article PMC8213057, “Targeting ALK2: An Open Science Approach to Developing Therapeutics for the Treatment of Diffuse Intrinsic Pontine Glioma” (Journal of Medicinal Chemistry, 2020).
“And” between values parts separate entries of the source, which are not always exact repeats. Identical values can stand only once. Like-named read-outs stand apart in the source and are kept apart here.

Experiments:
CYP1A2 = target: T1, CYP1A2 (Homo sapiens, UniProt P05177); test: CYP inhibition assay; format: in vitro ADME; conditions: human liver microsomes
T1 construct: tissue Corning 452117; host or cells: pooled human liver microsomes (UltraPool HLM 150, mixed gender)
T1 sequence (P05177 whole entry): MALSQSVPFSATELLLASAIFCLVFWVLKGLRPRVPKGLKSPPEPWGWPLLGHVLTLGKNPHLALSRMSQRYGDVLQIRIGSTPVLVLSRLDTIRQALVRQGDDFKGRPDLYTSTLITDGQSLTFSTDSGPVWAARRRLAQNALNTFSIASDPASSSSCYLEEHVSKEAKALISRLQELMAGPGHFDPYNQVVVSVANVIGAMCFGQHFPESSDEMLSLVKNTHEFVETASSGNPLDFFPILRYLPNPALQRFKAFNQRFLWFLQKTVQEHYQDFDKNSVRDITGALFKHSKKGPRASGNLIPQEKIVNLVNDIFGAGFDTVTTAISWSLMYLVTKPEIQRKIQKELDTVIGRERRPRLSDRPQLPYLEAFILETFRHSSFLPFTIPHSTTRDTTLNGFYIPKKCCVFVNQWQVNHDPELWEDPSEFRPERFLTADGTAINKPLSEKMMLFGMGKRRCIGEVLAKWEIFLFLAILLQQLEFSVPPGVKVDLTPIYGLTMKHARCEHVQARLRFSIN

CYP3A4 = CYP3A4 (Homo sapiens, UniProt P08684); conditions: human liver microsomes
Sequence of CYP3A4 (P08684 whole entry): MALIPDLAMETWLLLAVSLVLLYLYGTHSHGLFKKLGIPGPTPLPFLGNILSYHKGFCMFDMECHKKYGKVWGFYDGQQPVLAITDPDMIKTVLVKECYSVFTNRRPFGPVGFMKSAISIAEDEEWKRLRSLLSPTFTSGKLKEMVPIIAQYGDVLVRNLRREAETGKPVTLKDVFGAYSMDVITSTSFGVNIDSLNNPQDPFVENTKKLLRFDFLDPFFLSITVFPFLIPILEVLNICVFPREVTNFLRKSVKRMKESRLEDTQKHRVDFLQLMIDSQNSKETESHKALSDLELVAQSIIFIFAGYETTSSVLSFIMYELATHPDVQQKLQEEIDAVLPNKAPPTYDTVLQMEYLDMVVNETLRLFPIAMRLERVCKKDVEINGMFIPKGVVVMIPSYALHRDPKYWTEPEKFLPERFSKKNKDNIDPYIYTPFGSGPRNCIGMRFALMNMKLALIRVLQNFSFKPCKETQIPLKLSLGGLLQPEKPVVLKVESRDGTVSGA

EPHA6 = target: T2, EPHA6 (Homo sapiens, UniProt Q9UF33); conditions: 1 μM; Run 1, Run 2
T2 sequence (Q9UF33 23-1036): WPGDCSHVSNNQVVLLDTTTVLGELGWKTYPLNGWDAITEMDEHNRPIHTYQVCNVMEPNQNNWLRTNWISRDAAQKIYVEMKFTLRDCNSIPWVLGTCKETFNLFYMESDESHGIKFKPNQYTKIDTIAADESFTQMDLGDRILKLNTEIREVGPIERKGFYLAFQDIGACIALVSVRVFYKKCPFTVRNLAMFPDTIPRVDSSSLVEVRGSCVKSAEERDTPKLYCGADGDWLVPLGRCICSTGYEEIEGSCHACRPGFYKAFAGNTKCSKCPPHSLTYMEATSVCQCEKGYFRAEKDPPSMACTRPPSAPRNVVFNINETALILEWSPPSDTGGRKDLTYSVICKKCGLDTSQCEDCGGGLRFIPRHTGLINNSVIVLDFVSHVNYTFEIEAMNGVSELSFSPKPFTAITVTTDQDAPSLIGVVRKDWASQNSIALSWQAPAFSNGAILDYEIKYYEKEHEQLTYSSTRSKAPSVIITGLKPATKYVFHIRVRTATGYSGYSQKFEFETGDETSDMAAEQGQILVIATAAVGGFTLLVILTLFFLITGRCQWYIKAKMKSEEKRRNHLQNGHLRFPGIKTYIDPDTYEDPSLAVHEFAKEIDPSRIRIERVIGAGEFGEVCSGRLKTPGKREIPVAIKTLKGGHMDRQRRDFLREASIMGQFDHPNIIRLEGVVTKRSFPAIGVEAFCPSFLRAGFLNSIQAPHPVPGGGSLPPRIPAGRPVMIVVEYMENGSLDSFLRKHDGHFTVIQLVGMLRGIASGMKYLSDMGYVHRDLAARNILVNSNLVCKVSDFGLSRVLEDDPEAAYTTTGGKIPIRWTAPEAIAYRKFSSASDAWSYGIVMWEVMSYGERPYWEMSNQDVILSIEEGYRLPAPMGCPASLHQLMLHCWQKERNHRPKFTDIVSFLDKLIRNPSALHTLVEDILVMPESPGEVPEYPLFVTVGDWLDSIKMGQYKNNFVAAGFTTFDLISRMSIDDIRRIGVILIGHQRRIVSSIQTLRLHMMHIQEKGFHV

FAK/PTK2 = FAK/PTK2 (Homo sapiens, UniProt Q05397); conditions: 1 μM; Run 1, Run 2
Sequence of FAK/PTK2 (Q05397 whole entry): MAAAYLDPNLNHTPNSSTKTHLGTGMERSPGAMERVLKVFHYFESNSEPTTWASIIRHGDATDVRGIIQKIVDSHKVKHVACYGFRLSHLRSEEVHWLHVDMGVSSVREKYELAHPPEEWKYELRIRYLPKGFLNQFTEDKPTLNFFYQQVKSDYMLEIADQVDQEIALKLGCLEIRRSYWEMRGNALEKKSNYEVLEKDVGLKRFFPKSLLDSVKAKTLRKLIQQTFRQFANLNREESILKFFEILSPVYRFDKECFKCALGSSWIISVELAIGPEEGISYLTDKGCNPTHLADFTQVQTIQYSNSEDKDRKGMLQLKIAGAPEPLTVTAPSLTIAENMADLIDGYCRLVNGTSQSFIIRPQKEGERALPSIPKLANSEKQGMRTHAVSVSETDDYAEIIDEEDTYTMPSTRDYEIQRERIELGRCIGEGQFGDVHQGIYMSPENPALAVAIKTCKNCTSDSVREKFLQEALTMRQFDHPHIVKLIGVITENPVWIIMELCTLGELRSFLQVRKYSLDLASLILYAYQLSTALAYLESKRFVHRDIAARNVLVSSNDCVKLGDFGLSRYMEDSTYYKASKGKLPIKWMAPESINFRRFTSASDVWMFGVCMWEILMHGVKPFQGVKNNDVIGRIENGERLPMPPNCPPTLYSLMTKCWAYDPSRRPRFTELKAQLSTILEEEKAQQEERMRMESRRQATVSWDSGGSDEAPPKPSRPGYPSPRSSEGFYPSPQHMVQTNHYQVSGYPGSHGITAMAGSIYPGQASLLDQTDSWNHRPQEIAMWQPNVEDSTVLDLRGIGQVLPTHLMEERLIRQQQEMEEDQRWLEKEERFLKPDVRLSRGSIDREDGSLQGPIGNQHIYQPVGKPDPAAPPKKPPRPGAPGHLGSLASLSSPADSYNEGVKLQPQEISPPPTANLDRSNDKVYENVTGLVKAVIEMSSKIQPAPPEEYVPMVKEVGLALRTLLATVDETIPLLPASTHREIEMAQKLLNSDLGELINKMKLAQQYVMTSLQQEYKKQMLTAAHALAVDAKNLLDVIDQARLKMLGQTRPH

IKKa/CHUK = target: T3, IKKa/CHUK (Homo sapiens, UniProt O15111); conditions: 1 μM; Run 1, Run 2
T3 sequence (O15111 1-745): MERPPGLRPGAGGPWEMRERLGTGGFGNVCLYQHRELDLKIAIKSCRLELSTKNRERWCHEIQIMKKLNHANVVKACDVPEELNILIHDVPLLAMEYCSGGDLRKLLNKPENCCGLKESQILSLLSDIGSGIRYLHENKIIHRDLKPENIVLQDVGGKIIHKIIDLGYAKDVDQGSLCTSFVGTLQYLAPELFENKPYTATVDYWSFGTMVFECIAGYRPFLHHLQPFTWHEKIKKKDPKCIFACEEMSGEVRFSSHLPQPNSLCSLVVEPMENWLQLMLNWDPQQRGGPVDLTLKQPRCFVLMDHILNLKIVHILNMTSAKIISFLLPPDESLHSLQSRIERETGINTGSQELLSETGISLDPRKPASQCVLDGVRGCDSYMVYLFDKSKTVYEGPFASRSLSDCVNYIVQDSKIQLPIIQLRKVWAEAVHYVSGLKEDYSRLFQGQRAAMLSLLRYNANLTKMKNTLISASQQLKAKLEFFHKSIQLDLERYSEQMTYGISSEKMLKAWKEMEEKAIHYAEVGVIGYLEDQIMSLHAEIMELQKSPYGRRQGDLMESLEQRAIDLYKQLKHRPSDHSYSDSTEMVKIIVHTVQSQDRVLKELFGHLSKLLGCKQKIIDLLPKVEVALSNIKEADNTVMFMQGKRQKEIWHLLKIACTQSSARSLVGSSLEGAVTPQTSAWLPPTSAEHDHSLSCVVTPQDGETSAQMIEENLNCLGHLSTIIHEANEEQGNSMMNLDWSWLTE

SIK1 = SIK1 (Homo sapiens, UniProt P57059); conditions: 1 μM; Run 1, Run 2
STK22D/TSSK1 = target: T4, STK22D/TSSK1 (Homo sapiens, UniProt Q9BXA7); conditions: 1 μM; Run 1, Run 2
T4 sequence (Q9BXA7 1-367): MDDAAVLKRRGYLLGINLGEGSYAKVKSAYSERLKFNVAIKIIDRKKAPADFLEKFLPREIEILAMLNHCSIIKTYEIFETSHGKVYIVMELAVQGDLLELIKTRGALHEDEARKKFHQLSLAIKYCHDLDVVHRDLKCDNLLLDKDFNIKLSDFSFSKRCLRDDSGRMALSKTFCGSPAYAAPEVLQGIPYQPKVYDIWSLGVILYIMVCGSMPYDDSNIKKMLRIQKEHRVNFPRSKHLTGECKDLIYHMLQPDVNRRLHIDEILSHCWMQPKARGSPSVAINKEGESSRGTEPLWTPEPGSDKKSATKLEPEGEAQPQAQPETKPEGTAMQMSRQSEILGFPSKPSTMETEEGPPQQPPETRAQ

ACK1 = ACK1 (Homo sapiens, UniProt Q07912); test: biochemical; conditions: read-out: % enzyme activity, 1 μM; Run 1, Run 2
Sequence of ACK1 (Q07912 whole entry): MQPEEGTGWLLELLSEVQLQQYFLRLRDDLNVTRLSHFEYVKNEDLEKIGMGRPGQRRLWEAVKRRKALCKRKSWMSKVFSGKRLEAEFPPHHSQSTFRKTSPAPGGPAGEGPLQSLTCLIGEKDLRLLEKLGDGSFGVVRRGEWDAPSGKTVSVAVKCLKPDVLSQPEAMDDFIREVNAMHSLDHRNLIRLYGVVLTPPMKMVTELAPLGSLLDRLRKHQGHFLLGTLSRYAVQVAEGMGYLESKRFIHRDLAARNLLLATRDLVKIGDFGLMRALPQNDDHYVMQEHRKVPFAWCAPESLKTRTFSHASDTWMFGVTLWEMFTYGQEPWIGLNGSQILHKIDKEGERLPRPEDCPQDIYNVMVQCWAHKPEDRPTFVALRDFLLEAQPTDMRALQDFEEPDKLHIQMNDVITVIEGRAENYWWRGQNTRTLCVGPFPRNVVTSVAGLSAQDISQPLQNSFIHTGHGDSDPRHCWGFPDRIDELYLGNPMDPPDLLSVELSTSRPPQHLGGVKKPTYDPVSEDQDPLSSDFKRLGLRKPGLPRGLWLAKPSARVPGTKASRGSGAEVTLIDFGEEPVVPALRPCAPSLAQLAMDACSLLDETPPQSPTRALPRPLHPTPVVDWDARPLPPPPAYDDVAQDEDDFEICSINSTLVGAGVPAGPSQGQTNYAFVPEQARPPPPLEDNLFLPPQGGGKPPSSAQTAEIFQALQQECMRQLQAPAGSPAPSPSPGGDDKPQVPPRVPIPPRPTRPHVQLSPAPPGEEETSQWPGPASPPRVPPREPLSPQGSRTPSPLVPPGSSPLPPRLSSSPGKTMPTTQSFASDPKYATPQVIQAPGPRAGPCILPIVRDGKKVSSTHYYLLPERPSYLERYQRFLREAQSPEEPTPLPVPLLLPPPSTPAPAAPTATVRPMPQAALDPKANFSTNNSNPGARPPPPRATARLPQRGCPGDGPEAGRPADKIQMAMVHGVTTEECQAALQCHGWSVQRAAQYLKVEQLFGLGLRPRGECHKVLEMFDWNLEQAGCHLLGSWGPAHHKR

CDC7/DBF4 = CDC7/DBF4 (Homo sapiens, UniProt O00311); test: biochemical; conditions: read-out: % enzyme activity, 1 μM; Run 1, Run 2
Sequence of CDC7/DBF4 (O00311 whole entry): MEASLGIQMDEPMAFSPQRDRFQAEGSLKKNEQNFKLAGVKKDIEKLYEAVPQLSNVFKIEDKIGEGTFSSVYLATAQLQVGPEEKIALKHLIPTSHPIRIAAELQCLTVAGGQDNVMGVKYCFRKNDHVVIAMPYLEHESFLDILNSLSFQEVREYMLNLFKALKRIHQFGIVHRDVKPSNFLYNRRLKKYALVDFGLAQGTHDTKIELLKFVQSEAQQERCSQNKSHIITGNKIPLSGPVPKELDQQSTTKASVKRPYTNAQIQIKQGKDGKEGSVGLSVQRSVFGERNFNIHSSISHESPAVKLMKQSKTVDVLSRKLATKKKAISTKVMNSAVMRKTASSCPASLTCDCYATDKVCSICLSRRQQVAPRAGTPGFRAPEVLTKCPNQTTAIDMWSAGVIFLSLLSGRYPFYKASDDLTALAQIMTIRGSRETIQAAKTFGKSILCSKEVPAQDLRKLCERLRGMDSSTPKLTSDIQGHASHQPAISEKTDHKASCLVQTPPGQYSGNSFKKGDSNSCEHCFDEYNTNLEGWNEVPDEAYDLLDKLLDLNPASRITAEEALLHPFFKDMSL
Sequence of CDC7/DBF4 (Q9UBU7 whole entry partner): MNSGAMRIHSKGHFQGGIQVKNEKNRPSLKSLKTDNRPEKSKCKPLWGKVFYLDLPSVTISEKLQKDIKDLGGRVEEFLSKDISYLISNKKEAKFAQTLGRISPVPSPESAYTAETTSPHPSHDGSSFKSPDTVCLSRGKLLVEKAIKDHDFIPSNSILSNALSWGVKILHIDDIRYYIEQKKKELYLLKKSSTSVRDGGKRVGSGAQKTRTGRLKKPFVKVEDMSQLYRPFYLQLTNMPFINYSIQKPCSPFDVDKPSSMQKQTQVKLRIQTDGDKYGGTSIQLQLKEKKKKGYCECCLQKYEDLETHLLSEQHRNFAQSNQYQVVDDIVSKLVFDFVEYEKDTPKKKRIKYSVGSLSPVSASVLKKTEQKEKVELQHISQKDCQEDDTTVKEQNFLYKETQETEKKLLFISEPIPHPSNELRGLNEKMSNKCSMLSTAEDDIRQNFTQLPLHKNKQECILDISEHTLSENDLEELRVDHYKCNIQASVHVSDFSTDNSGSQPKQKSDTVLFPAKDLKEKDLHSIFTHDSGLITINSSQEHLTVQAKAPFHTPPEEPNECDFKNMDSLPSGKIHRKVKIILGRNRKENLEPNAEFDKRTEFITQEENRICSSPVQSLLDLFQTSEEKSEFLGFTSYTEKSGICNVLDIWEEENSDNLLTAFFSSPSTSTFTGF

CDK1/cyclin B = CDK1/cyclin B (Homo sapiens, UniProt P06493); test: biochemical; conditions: read-out: % enzyme activity, 1 μM; Run 1, Run 2
CK1d = CK1d (Homo sapiens, UniProt P48730); test: biochemical; conditions: read-out: % enzyme activity, 1 μM; Run 1, Run 2
GRK6 = GRK6 (Homo sapiens, UniProt P43250); test: biochemical; conditions: read-out: % enzyme activity, 1 μM; Run 1, Run 2
MST3/STK24 = MST3/STK24 (Homo sapiens, UniProt Q9Y6E0); test: biochemical; conditions: read-out: % enzyme activity, 1 μM; Run 1, Run 2
Sequence of MST3/STK24 (Q9Y6E0 whole entry): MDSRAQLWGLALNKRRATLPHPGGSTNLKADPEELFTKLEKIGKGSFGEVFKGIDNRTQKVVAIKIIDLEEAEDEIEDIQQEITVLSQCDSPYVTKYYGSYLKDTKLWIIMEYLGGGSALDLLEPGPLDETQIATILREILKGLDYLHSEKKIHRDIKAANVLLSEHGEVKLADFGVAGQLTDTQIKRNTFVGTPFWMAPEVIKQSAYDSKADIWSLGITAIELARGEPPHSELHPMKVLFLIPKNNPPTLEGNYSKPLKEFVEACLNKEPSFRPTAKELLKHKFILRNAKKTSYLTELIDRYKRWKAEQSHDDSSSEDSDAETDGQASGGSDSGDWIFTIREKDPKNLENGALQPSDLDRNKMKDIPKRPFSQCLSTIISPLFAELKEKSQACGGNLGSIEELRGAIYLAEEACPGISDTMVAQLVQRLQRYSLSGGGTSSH

[1] = read-out: CYP3A4-Midazolam IC50, substrate midazolam
[2] = read-out: CYP3A4-Testosterone IC50, substrate testosterone

Row | Structure (SMILES) | % enzyme activity at 1 μM (ZAK/MLTK) | IC50 (CYP1A2) | IC50 (CYP3A4; [1]) | IC50 (CYP3A4; [2]) | % enzyme activity (EPHA6) | % enzyme activity (FAK/PTK2) | % enzyme activity (IKKa/CHUK) | % enzyme activity (SIK1) | % enzyme activity (STK22D/TSSK1) | remaining activity at 1 µM (ACK1) | remaining activity at 1 µM (CDC7/DBF4) | remaining activity at 1 µM (CDK1/cyclin B) | remaining activity at 1 µM (CK1d) | remaining activity at 1 µM (GRK6) | remaining activity at 1 µM (MST3/STK24)
1 | COc1cc(-c2cncc(-c3ccc(N4CCN(C)CC4)cc3)c2C)cc(F)c1C(N)=O [Compound 26a, 2-Fluoro-6-methoxy-4-(4-methyl-5-(4-(4-methylpiperazin-1-yl)phenyl)pyridin-3-yl)benzamide] | 31.3% and 30.9% | > 50 µM | > 50 µM | > 50 µM | 103.54% | 94.56% | 82.74% | 82.71% | 97.01% | 65.5% | 92.2% | 95.7% | 98.1% | 109% | 90.2%
2 | COc1cc(-c2cncc(-c3ccc(N4C[C@@H](C)N(C)[C@@H](C)C4)cc3)c2C)cc(F)c1C(N)=O [Compound 26c, 2-Fluoro-6-methoxy-4-(4-methyl-5-(4-((3R,5S)-3,4,5-trimethylpiperazin-1-yl)phenyl)pyridin-3-yl)benzamide] | 46.6% | > 50 µM | > 50 µM | > 50 µM | 103.73% | 97.12% | 85.96% | 91.60% | 99.16% | 79.5% | 94.2% | 94% | 108% | 97.1% | 96.3%
